Experimental data as given in patent US6465205B2, “In vitro cell culture device including cartilage and methods of using the same” (The Research Foundation of State University of New York, priority 1999, dated 2002).

Legend:
[1] = test system: matrix metalloproteinases (MMP-2, MMP-9) in chondrocyte-conditioned medium; assay: Gelatin zymography for MMP activity; assay type: biochemical, bovine or porcine
Experimental: Cell viability and number were determined by Trypan blue staining and counting using a hemocytometer. Chondrocytes were plated on collagen inserts (Costar Transwell, VWR, Pittsburgh, Pa.) at 20-40×10^6 cells/well in DMEM/F12 containing antibiotics, 10% FBS, and 50 μg/ml ascorbic acid (prepared fresh and added every other day). After the chondrocytes had formed a layer of extracellular matrix (approximately 2 weeks), the medium was switched to serum free (DMEM/F12 with antibiotics, 5 μg/ml insulin, 15 μg/ml bovine pituitary extract, 10 μg/ml epidermal growth factor, 5 μg/ml transferrin, 1 μM hydrocortisone, 10^−8 M retinol, and ascorbic acid). Cultures were fed from the bottom every 3-4 days. Medium was collected from chondrocyte cultures on days 3, 5, 7, 10, and 14 after switching from 10% FBS-containing medium to SFM. […]
CCM or SFM, obtained as described above, was mixed with 2× sample buffer (20 mM DTT, 4% SDS, 50 mM Tris, 20% glycine, 0.002% Bromophenol blue), loaded without prior heating, and electrophoresed under non-reducing conditions at 4° C. for approximately 4 hours under constant voltage. […] Gels were rinsed twice with distilled water then stained for 1 hour in Coomassie blue stain, followed by destaining in water/methanol/acetic acid (6:3.5:0.5) until clear areas of enzyme activity were detected against a blue background. […]

[2] = test system: respiratory epithelial cells; assay: Proliferation of respiratory epithelial cells (cell number by hemocytometer count); assay type: cell-based, porcine
Experimental: Porcine tracheal tissue obtained at necropsy was cleaned of debris, rinsed thoroughly with PBS, and epithelium and submucosa removed and soaked overnight at 4° C. in MEM containing antibiotics/antimycotics. Dissociated respiratory epithelial cells were isolated using elastase digestion as described by Hicks et al. (“Rapid Isolation of Upper Respiratory Epithelial Cells,” Mol. Biol. Cell., 5(Suppl.): 118a (Abstract), (1995); Hicks et al., “Isolation and Characterization of Basal Cells from Human Upper Respiratory Epithelium,” Exp. Cell Res. 237:357-363 (1997), which are hereby incorporated by reference) and plated on top of type I collagen-coated 35 mm petri dishes at 0.2×10^6 cells/cm^2 in serum free medium. In selected experiments, cells were cultured in Biocoat type I collagen-coated 24 well plates. Medium was collected for gelatin zymography as described above.
The proliferative effects of CCM on REC were assessed by addition of CCM diluted 1:1 with SFM. REC cultures grown on type I collagen were fed 0.1 ml CCM or control SFM daily, and media were changed completely every 3 days. […] After incubation at 37° C. for 20 minutes, REC were again washed with PBS/10% FBS, then resuspended in PBS and an aliquot counted using Trypan blue dye exclusion to determine viability and cell number. […]

Row | SMILES | MMP enzyme activity on zymogram developed in presence of chelator ([1]; developing buffer containing 20 mM EDTA (FIG. 5B)) | Block of MMP (marker protein) activity in pooled CCM by gelatin zymography ([1]; 5 nM, medium of day 3 and day 7 (FIGS. 7A-B)) | Effect on REC proliferation ([2]; 5 nM, REC cultured with or without CCM, cell number after 7 days) | Restoration of REC proliferation to control levels ([2]; concentrations of 10 and 50 W, in presence of CCM (FIG. 8))
1 | O=C(O)CN(CCN(CC(=O)O)CC(=O)O)CC(=O)O [EDTA, ethylenediamine tetraacetic acid] | enzyme activity was abolished |  |  | 
2 | CNC(=O)[C@H](Cc1c[nH]c2ccccc12)NC(=O)[C@@H](CC(=O)NO)CC(C)C [GM6001] |  | did not block marker protein activity | nor was proliferation positively affected | proliferation was not restored to control levels
